The target in the experiment is Prostaglandin G/H synthase 1 (Bos taurus) (UniProt O62664). In words: Inhibitory activity against bovine seminal vesicle prostaglandin synthetase.

Data on one compound can be found in BindingDB's records for doi:10.1021/jm00033a017 (Dupont Pharmaceuticals, 1994).

Chain of Prostaglandin G/H synthase 1 (Bos taurus) (O62664 whole entry, looked up): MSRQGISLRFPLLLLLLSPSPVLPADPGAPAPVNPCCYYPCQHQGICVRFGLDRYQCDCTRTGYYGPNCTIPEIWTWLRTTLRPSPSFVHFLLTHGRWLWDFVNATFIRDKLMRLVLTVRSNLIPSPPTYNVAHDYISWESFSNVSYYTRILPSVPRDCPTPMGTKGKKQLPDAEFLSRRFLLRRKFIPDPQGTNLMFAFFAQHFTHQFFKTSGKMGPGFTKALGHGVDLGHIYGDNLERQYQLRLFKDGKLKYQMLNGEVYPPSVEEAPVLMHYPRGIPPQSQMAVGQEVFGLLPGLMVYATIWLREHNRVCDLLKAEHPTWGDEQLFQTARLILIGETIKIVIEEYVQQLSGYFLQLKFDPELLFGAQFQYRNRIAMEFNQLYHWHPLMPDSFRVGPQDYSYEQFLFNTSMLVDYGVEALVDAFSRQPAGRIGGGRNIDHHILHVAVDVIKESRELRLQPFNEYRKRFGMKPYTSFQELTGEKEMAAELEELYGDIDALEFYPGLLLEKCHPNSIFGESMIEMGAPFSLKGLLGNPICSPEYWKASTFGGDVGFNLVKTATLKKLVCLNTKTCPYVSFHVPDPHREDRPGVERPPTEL

Turning to `CS(=O)(=O)c1ccc(-c2[nH]c(SC#N)cc2-c2ccc(F)cc2)cc1` [3-(4-Fluoro-phenyl)-2-(4-methanesulfonyl-phenyl)-5-thiocyanato-1H-pyrrole], the IC50 – broadly, the concentration needed to halve the response being measured – was found to be 6.2 µM.
